# Data taken from patent US9730940B2, “Purine inhibitors of human phosphatidylinositol 3-kinase delta” (priority 2012, dated 2017).
# Target: PI3K-alpha (Homo sapiens (Human), UniProt P42336)
# Assay: HTRF PI3K biochemical assay, alpha isoform
# Settings: ratio PI3K-alpha IC50 value/PI3K-delta IC50 value
# Chain of PI3K-alpha (P42336 whole entry, looked up, canonical isoform): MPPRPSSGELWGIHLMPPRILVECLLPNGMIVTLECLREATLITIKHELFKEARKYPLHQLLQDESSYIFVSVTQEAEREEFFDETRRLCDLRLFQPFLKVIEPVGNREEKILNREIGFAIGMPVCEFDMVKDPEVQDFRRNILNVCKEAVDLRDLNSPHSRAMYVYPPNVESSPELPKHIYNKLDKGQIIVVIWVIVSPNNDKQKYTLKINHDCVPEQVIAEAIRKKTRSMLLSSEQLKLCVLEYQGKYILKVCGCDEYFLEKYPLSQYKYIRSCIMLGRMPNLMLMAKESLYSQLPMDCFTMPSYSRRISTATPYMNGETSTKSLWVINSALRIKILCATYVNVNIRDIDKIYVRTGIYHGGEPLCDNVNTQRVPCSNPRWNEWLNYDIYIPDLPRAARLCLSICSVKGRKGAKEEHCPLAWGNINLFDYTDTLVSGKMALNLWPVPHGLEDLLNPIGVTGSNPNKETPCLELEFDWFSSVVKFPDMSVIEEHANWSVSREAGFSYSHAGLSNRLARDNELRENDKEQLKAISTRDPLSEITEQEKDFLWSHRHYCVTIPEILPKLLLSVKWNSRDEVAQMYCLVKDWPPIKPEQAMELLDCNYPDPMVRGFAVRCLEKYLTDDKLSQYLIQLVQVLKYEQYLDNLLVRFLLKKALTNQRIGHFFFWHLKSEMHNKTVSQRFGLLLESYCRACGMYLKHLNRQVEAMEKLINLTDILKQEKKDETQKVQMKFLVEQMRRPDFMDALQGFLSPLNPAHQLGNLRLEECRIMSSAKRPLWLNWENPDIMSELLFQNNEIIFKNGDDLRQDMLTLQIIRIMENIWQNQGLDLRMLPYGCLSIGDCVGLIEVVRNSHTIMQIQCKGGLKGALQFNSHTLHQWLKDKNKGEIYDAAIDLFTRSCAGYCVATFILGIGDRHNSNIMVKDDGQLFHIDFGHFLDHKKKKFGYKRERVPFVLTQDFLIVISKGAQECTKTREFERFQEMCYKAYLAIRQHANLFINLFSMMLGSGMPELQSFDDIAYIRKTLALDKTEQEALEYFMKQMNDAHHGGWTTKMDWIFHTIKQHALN
# Chain of PI3K-alpha (P27986 whole entry partner, looked up, canonical isoform): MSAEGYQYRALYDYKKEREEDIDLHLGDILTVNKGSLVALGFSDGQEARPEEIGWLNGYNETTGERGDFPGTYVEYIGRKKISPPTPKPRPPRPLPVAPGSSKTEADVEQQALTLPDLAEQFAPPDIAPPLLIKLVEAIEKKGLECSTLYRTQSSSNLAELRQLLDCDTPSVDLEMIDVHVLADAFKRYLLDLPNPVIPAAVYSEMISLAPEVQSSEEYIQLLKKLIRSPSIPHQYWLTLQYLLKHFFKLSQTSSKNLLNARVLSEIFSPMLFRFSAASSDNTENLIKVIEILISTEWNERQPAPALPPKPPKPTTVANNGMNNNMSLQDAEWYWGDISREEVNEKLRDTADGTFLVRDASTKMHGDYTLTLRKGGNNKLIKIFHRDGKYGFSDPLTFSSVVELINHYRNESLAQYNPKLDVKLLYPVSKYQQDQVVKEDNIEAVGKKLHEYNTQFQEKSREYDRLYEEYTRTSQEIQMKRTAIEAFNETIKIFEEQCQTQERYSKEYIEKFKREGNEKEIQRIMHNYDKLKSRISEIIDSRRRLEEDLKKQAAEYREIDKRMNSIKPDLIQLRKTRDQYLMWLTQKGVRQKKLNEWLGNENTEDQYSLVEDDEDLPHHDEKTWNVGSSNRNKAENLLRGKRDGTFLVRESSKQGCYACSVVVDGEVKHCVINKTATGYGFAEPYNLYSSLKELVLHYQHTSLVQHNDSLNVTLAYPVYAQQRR
row,Structure (SMILES),Relative Selectivity versus PI3Kalpha
1,"CCn1ncc(-c2nc3c(S[C@H]4CCN(C(=O)C5CC5)C4)ncnc3n2C)c1C [Compound 10-7, (S)-cyclopropyl(3-((8-(1-ethyl-5-methyl-1H-pyrazol-4-yl)-9-methyl-9H-purin-6-yl)thio)pyrrolidin-1-yl)methanone]",>10
2,"CCOC(=O)N1CC[C@H](Sc2ncnc3c2nc(-c2cnn(CC)c2C)n3C)C1 [Compound 10-8, (S)-ethyl 3-((8-(1-ethyl-5-methyl-1H-pyrazol-4-yl)-9-methyl-9H-purin-6-yl)thio)pyrrolidine-1-carboxylate]",>10
3,"CCn1ncc(-c2nc3c(S[C@H]4CCN(C(=O)OCC(C)C)C4)ncnc3n2C)c1C [Compound 10-9, (S)-isobutyl 3-((8-(1-ethyl-5-methyl-1H-pyrazol-4-yl)-9-methyl-9H-purin-6-yl)thio)pyrrolidine-1-carboxylate]",>10
4,"CCn1ncc(-c2nc3c(S[C@H]4CCN(C(=O)c5ccn(C)n5)C4)ncnc3n2C)c1C [Compound 10-10, (S)-(3-((8-(1-ethyl-5-methyl-1H-pyrazol-4-yl)-9-methyl-9H-purin-6-yl)thio)pyrrolidin-1-yl)(1-methyl-1H-pyrazol-3-yl)methanone]",>10
5,"CCn1ncc(-c2nc3c(S[C@H]4CCN(C(=O)c5coc(C)n5)C4)ncnc3n2C)c1C [Compound 10-11, (S)-(3-((8-(1-ethyl-5-methyl-1H-pyrazol-4-yl)-9-methyl-9H-purin-6-yl)thio)pyrrolidin-1-yl)(2-methyloxazol-4-yl)methanone]",>10
6,"CCn1ncc(-c2nc3c(S[C@H]4CCN(c5ccncn5)C4)ncnc3n2C)c1C [Compound 10-12, (S)-8-(1-ethyl-5-methyl-1H-pyrazol-4-yl)-9-methyl-6-((1-(pyrimidin-4-yl)pyrrolidin-3-yl)thio)-9H-purine]",>10
7,"CCn1ncc(-c2nc3c(S[C@H]4CCN(c5ncnc6sccc56)C4)ncnc3n2C)c1C [Compound 10-13, (S)-4-(3-((8-(1-ethyl-5-methyl-1H-pyrazol-4-yl)-9-methyl-9H-purin-6-yl)thio)pyrrolidin-1-yl)thieno[2,3-d]pyrimidine]",>10
8,"CCn1ncc(-c2nc3c(CC4CCN(C(=O)OC(C)(C)C)C4)ncnc3n2C)c1C (stereo not shown) [Compound 11-1, tert-butyl 3-((8-(1-ethyl-5-methyl-1H-pyrazol-4-yl)-9-methyl-9H-purin-6-yl)methyl)pyrrolidine-1-carboxylate]",>10
9,"CCn1ncc(-c2nc3c(CC4CCN(C(=O)C5CCOCC5)C4)ncnc3n2C)c1C (stereo not shown) [Compound 11-2, (3-((8-(1-ethyl-5-methyl-1H-pyrazol-4-yl)-9-methyl-9H-purin-6-yl)methyl)pyrrolidin-1-yl)(tetrahydro-2H-pyran-4-yl)methanone]",>10
10,"CCC(=O)N1CCC(Cc2ncnc3c2nc(-c2cnn(CC)c2C)n3C)C1 (stereo not shown) [Compound 11-3, 1-(3-((8-(1-ethyl-5-methyl-1H-pyrazol-4-yl)-9-methyl-9H-purin-6-yl)methyl)pyrrolidin-1-yl)propan-1-one]",>10
11,"CCC(=O)N1CC[C@H](Oc2ncnc3c2nc(Oc2cccc(C)c2C)n3C)C1 [Compound 12-1, 8-(2,3-dimethylphenoxy)-9-methyl-6-{[(3S)-1-propanoylpyrrolidin-3-yl]oxy}-9H-purine]",4
12,"CCC(=O)N1CC[C@H](Oc2ncnc3c2nc(Oc2cc(F)cc(OC)c2)n3C)C1 [Compound 12-2, 8-(3-fluoro-5-methoxyphenoxy)-9-methyl-6-{[(3S)-1-propanoylpyrrolidin-3-yl]oxy}-9H-purine]",>10
13,"CCC(=O)N1CC[C@H](Oc2ncnc3c2nc(Oc2cnc(C)nc2)n3C)C1 [Compound 12-3, 9-methyl-8-[(2-methylpyrimidin-5-yl)oxy]-6-{[(3S)-1-propanoylpyrrolidin-3-yl]oxy}-9H-purine]",>10
14,"CCC(=O)N1CC[C@H](Oc2ncnc3c2nc(Oc2ccc(OC)c(F)c2)n3C)C1 [Compound 12-4, 8-(3-fluoro-4-methoxyphenoxy)-9-methyl-6-{[(3S)-1-propanoylpyrrolidin-3-yl]oxy}-9H-purine]",>10
15,"CCn1c(N(C)CC(C)C)nc2c(O[C@H]3CCN(C(=O)OC(C)(C)C)C3)ncnc21 [Compound 13-1, tert-butyl (3S)-3-({9-ethyl-8-[methyl(2-methylpropyl)amino]-9H-purin-6-yl}oxy)pyrrolidine-1-carboxylate]",>10
16,"CCn1c(N(C)CCO)nc2c(O[C@H]3CCN(C(=O)OC(C)(C)C)C3)ncnc21 [Compound 13-2, tert-butyl (3S)-3-({9-ethyl-8-[(2-hydroxyethyl)(methyl)amino]-9H-purin-6-yl}oxy)pyrrolidine-1-carboxylate]",>10
17,"CCn1c(N2CCC(S(C)(=O)=O)C2)nc2c(O[C@H]3CCN(C(=O)OC(C)(C)C)C3)ncnc21 (stereo partly drawn) [Compound 13-3, tert-butyl (3S)-3-({9-ethyl-8-[3-(methylsulfonyl)pyrrolidin-1-yl]-9H-purin-6-yl}oxy)pyrrolidine-1-carboxylate]",>10

row,Structure (SMILES),Relative Selectivity versus PI3Kalpha
1,"CCn1c(N2CCC(C)CC2)nc2c(O[C@H]3CCN(C(=O)OC(C)(C)C)C3)ncnc21 [Compound 13-4, tert-butyl (3S)-3-{[9-ethyl-8-(4-methylpiperidin-1-yl)-9H-purin-6-yl]oxy}pyrrolidine-1-carboxylate]",>10
2,"CCn1c(N2CCC(c3ccccc3)CC2)nc2c(O[C@H]3CCN(C(=O)OC(C)(C)C)C3)ncnc21 [Compound 13-5, tert-butyl (3S)-3-{[9-ethyl-8-(4-phenylpiperidin-1-yl)-9H-purin-6-yl]oxy}pyrrolidine-1-carboxylate]",>10
3,"CCn1c(N(C)CCOC)nc2c(O[C@H]3CCN(C(=O)OC(C)(C)C)C3)ncnc21 [Compound 13-6, tert-butyl (3S)-3-({9-ethyl-8-[(2-methoxyethyl)(methyl)amino]-9H-purin-6-yl}oxy)pyrrolidine-1-carboxylate]",>10
4,"CCn1c(N(C)C(C)C)nc2c(O[C@H]3CCN(C(=O)OC(C)(C)C)C3)ncnc21 [Compound 13-7, tert-butyl (3S)-3-({9-ethyl-8-[methyl(1-methylethyl)amino]-9H-purin-6-yl}oxy)pyrrolidine-1-carboxylate]",>10
5,"CCn1c(N2CCC(C)C2)nc2c(O[C@H]3CCN(C(=O)OC(C)(C)C)C3)ncnc21 (stereo partly drawn) [Compound 13-8, tert-butyl (3S)-3-{[9-ethyl-8-(3-methylpyrrolidin-1-yl)-9H-purin-6-yl]oxy}pyrrolidine-1-carboxylate]",>10
6,"CCC(=O)N1CC[C@H](Oc2ncnc3c2nc(C2=CCOCC2)n3CC)C1 [Compound 14-1, 8-(3,6-dihydro-2H-pyran-4-yl)-9-ethyl-6-{[(3S)-1-propanoylpyrrolidin-3-yl]oxy}-9H-purine]",>10
7,"CCC(=O)N1CC[C@H](Oc2ncnc3c2nc(C2CC2)n3C)C1 [Compound 14-2, 8-cyclopropyl-9-methyl-6-{[(3S)-1-propanoylpyrrolidin-3-yl]oxy}-9H-purine]",>10
8,"CCC(=O)N1CC[C@H](Oc2ncnc3c2nc(CC(C)C)n3CC)C1 [Compound 14-3, 9-ethyl-8-(2-methylpropyl)-6-{[(3S)-1-propanoylpyrrolidin-3-yl]oxy}-9H-purine]",>10
9,"CCC(=O)N1CC[C@H](Oc2ncnc3c2nc(CC(C)C)n3C)C1 [Compound 14-4, 9-methyl-8-(2-methylpropyl)-6-{[(3S)-1-propanoylpyrrolidin-3-yl]oxy}-9H-purine]",>10
10,"CCC(=O)N1CC[C@H](Oc2ncnc3c2nc(C(F)F)n3CC)C1 [Compound 14-5, 8-(difluoromethyl)-9-ethyl-6-{[(3S)-1-propanoylpyrrolidin-3-yl]oxy}-9H-purine]",>10
11,"CCC(=O)N1CC[C@H](Oc2ncnc3c2nc(C(F)(F)F)n3CC)C1 [Compound 14-6, 9-ethyl-6-{[(3S)-1-propanoylpyrrolidin-3-yl]oxy}-8-(trifluoromethyl)-9H-purine]",>10
12,"CCC(=O)N1CC[C@H](Oc2ncnc3c2nc(C(F)(F)F)n3C)C1 [Compound 14-7, 9-methyl-6-{[(3S)-1-propanoylpyrrolidin-3-yl]oxy}-8-(trifluoromethyl)-9H-purine]",>10
13,"CCn1c(C(=O)NCC(F)(F)F)nc2c(O[C@H]3CCN(C(=O)OC(C)(C)C)C3)ncnc21 [Compound 15-1, tert-butyl (3S)-3-({9-ethyl-8-[(2,2,2-trifluoroethyl)carbamoyl]-9H-purin-6-yl}oxy)pyrrolidine-1-carboxylate]",>10
14,"CCn1c(C(=O)NCC(F)(F)F)nc2c(O[C@H]3CCN(C(=O)N4CC(OC)C4)C3)ncnc21 [Compound 15-2, (S)-9-ethyl-6-((1-(3-methoxyazetidine-1-carbonyl)pyrrolidin-3-yl)oxy)-N-(2,2,2-trifluoroethyl)-9H-purine-8-carboxamide]",>10
15,"CCn1c(C(=O)NCC2CC2)nc2c(O[C@H]3CCN(C(=O)OC(C)(C)C)C3)ncnc21 [Compound 15-3, tert-butyl (3S)-3-({8-[(cyclopropylmethyl)carbamoyl]-9-ethyl-9H-purin-6-yl}oxy)pyrrolidine-1-carboxylate]",>10
16,"CCn1c(C(=O)NC2CCCCC2)nc2c(O[C@H]3CCN(C(=O)OC(C)(C)C)C3)ncnc21 [Compound 15-4, tert-butyl (3S)-3-{[8-(cyclohexylcarbamoyl)-9-ethyl-9H-purin-6-yl]oxy}pyrrolidine-1-carboxylate]",>10
17,"CCNC(=O)c1nc2c(O[C@H]3CCN(C(=O)OC(C)(C)C)C3)ncnc2n1CC [Compound 15-5, tert-butyl (3S)-3-{[9-ethyl-8-(ethylcarbamoyl)-9H-purin-6-yl]oxy}pyrrolidine-1-carboxylate]",>10
